What was measured:
Adenosine A2A receptor = Adenosine A2A receptor (Homo sapiens (Human), UniProt P29274); test: A2A Tag-Lite HTRF assay; assay type: binding; settings: Tag-Lite Adenosine A2A labeled cells, displacement of A2A Receptor Red antagonist fluorescent ligand 12.5 nM; read-out: A2A_Ki
Source text: Example C. A2A Tag-Lite® HTRF Assay
The final concentration of DMSO was 1%.

[1] = target: human adenosine A2B receptor (Homo sapiens (Human), UniProt P29275); test: Adenosine A2B Receptor Cyclic AMP GS Assay; assay type: cell-based; settings: HEK-293 cells expressing human A2B receptor, agonist NECA 12 nM, cAMP accumulation; read-out: A2B_cAMP_EC50
Experimental: Example B. Adenosine A2B Receptor Cyclic AMP GS Assay
Stably transfected HEK-293 cells expressing the human adenosine A2B receptor (Perkin Elmer) were maintained in MEM culture medium with 10% FBS and 100 μg/mL Geneticin (Life Technologies). 18 to 24 hours prior to assay, geneticin was removed from culture. The cisbio cAMP-GS Dynamic kit utilizing the FRET (Fluorescence Resonance Energy Transfer) technology was used to measure cAMP accumulation in the cells. Compounds of the present disclosure at an appropriate concentration were mixed with 10000 cells/well in white 96 well half area plates (Perkin Elmer) for 30 min at room temperature gently shaking. Agonist, NECA (R&D Technologies) at 12 nM was added to each well for 60 min at room temperature gently shaking. Detection reagents, d2-labeled cAMP (acceptor) and anti-cAMP cryptate (donor) were added to each well for 60 min at RT gently shaking. Plates were read on Pherastar (BMG Labtech), fluorescence ratio 665/620 was calculated and EC50 determination was performed by fitting the curve of percent of control versus the log of the compound concentration using GraphPad Prism.

Sequence of Adenosine A2A receptor (P29274 whole entry): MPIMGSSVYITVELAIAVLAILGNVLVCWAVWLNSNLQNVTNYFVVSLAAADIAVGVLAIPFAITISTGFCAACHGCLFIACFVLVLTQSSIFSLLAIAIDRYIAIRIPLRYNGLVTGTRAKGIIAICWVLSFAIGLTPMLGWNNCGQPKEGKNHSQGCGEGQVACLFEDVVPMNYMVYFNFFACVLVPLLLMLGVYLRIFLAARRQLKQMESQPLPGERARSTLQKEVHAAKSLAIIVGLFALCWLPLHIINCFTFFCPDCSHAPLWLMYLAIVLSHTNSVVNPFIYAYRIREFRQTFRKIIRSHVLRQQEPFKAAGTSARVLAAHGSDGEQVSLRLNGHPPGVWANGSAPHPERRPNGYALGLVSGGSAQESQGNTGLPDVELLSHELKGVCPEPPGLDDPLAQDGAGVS
Sequence of human adenosine A2B receptor (P29275 whole entry): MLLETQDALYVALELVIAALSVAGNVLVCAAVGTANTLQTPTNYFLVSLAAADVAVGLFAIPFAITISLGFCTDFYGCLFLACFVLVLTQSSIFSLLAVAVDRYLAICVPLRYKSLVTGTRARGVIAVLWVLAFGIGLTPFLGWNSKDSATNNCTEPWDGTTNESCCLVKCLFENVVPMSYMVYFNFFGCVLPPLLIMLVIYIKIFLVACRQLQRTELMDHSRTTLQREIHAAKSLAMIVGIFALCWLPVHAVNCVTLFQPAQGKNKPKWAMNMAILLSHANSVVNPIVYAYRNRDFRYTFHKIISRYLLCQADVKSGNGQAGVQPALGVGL

SMILES	Ki (Adenosine A2A receptor) [nM]	EC50 [1] [nM]
N#Cc1cccc(-c2cc3nc(Cc4ccccc4)cn3c(N)n2)c1 [Example 11, 3-(5-Amino-2-benzylimidazo[1,2-c]pyrimidin-7-yl)benzonitrile]	< 10	10 to 100
N#Cc1cccc(-c2cc3nc(NCc4cccc(-c5cnn(C6CCNCC6)c5)n4)nn3c(N)n2)c1F [Example 33, 3-(5-Amino-2-(((6-(1-(piperidin-4-yl)-1H-pyrazol-4-yl)pyridin-2-yl)methyl)amino)-[1,2,4]triazolo[1,5-c]pyrimidin-7-yl)-2-fluorobenzonitrile]	< 10	< 10
N#Cc1cccc(-c2cc3nc(Nc4ccccc4)nn3c(N)n2)c1 [Example 10, 3-(5-Amino-2-(phenylamino)-[1,2,4]triazolo[1,5-c]pyrimidin-7-yl)benzonitrile]	< 10	100 to 1000
N#Cc1cccc(-c2cc3nc(Cc4ccccn4)nn3c(N)n2)c1 [Example 3, 3-(5-Amino-2-(pyridin-2-ylmethyl)-[1,2,4]triazolo[1,5-c]pyrimidin-7-yl)benzonitrile]	< 10	< 10
N#Cc1cccc(-c2cc3nc(Cc4c(F)cccc4CN4CCC[C@H]4c4nn[nH]n4)nn3c(N)n2)c1F [Example 26, (S)-3-(2-(2-((2-(2H-Tetrazol-5-yl)pyrrolidin-1-yl)methyl)-6-fluorobenzyl)-5-amino-[1,2,4]triazolo[1,5-c]pyrimidin-7-yl)-2-fluorobenzonitrile]	< 10	< 10
N#Cc1cccc(-c2cc3nc(Cc4c(F)cccc4CN[C@@H]4CCOC4=O)nn3c(N)n2)c1F [Example 20, (R)-3-(5-Amino-2-(2-fluoro-6-(((2-oxotetrahydrofuran-3-yl)amino)methyl)benzyl)-[1,2,4]triazolo[1,5-c]pyrimidin-7-yl)-2-fluorobenzonitrile]	< 10	< 10
N#Cc1cccc(-c2cc3nc(CN4CCCC4=O)nn3c(N)n2)c1 [Example 6, 3-(5-Amino-2-((2-oxopyrrolidin-1-yl)methyl)-[1,2,4]triazolo[1,5-c]pyrimidin-7-yl)benzonitrile]	< 10	100 to 1000
CCN(Cc1cccc(F)c1Cc1nc2cc(-c3cccc(C#N)c3F)nc(N)n2n1)C1CCN(CC(=O)O)C1=O (centres unmarked) [Example 30, 2-(3-((2-((5-Amino-7-(3-cyano-2-fluorophenyl)-[1,2,4]triazolo[1,5-c]pyrimidin-2-yl)methyl)-3-fluorobenzyl)(ethyl)amino)-2-oxopyrrolidin-1-yl)acetic acid]	< 10	< 10
N#Cc1cccc(-c2cc3nc(Cc4c(F)cccc4CN[C@H]4CCNC4=O)nn3c(N)n2)c1F [Example 22, (S)-3-(5-Amino-2-(2-fluoro-6-(((2-oxopyrrolidin-3-yl)amino)methyl)benzyl)-[1,2,4]triazolo[1,5-c]pyrimidin-7-yl)-2-fluorobenzonitrile]	< 10	< 10
Cn1cc(-c2cccc(Cc3nc4cc(-c5cccc(C#N)c5)nc(N)n4n3)c2)cn1 [Example 5, 3-(5-Amino-2-(3-(1-methyl-1H-pyrazol-4-yl)benzyl)-[1,2,4]triazolo[1,5-c]pyrimidin-7-yl)benzonitrile]	< 10	100 to 1000
N#Cc1cccc(-c2cc3nc(Cc4c(F)cccc4CN[C@@H]4CCNC4=O)nn3c(N)n2)c1F [Example 21, (R)-3-(5-Amino-2-(2-fluoro-6-(((2-oxopyrrolidin-3-yl)amino)methyl)benzyl)-[1,2,4]triazolo[1,5-c]pyrimidin-7-yl)-2-fluorobenzonitrile]	< 10	< 10
N#Cc1cccc(-c2nc(N)n3nc(Cc4ccccc4)nc3c2CO)c1 [Example 9, 3-(5-Amino-2-benzyl-8-(hydroxymethyl)-[1,2,4]triazolo[1,5-c]pyrimidin-7-yl)benzonitrile]	< 10	10 to 100
N#Cc1cccc(-c2cc3nc(C(O)c4ccccc4)nn3c(N)n2)c1 (centres unmarked) [Example 1, 3-(5-Amino-2-(hydroxy(phenyl)methyl)-[1,2,4]triazolo[1,5-c]pyrimidin-7-yl)benzonitrile]	< 10	< 10

More lines, now with the values ahead:

Ki (Adenosine A2A receptor) [nM]	EC50 [1] [nM]	SMILES
< 10	< 10	N#Cc1cccc(-c2cc3nc(C(O)c4c(F)cccc4F)nn3c(N)n2)c1F (centres unmarked) [Example 14, 3-(5-Amino-2-((2,6-difluorophenyl)(hydroxy)methyl)-[1,2,4]triazolo[1,5-c]pyrimidin-7-yl)-2-fluorobenzonitrile]
< 10	10 to 100	CN1CCC2(CN(Cc3cccc(F)c3Cc3nc4cc(-c5cccc(C#N)c5F)nc(N)n4n3)C2)C1=O [Example 28, 3-(5-Amino-2-(2-fluoro-6-((6-methyl-5-oxo-2,6-diazaspiro[3.4]octan-2-yl)methyl)benzyl)-[1,2,4]triazolo[1,5-c]pyrimidin-7-yl)-2-fluorobenzonitrile]
< 10	10 to 100	N#Cc1cccc(-c2cc3nc(Cc4c(F)cccc4CN4CCC(c5nn[nH]n5)C4)nn3c(N)n2)c1F (centres unmarked) [Example 23, 3-(2-(2-((3-(2H-Tetrazol-5-yl)pyrrolidin-1-yl)methyl)-6-fluorobenzyl)-5-amino-[1,2,4]triazolo[1,5-c]pyrimidin-7-yl)-2-fluorobenzonitrile]
< 10	10 to 100	N#Cc1cccc(-c2cc3nc(Cc4c(F)cccc4CN4CC[C@H](C#N)C4)nn3c(N)n2)c1F [Example 27, (S)-1-(2-((5-Amino-7-(3-cyano-2-fluorophenyl)-[1,2,4]triazolo[1,5-c]pyrimidin-2-yl)methyl)-3-fluorobenzyl)pyrrolidine-3-carbonitrile]
< 10	10 to 100	N#Cc1cccc(-c2cc3nc(Cc4c(F)cccc4CNC4CCN(CC(=O)O)C4=O)nn3c(N)n2)c1F (centres unmarked) [Example 19, 2-(3-((2-((5-Amino-7-(3-cyano-2-fluorophenyl)-[1,2,4]triazolo[1,5-c]pyrimidin-2-yl)methyl)-3-fluorobenzyl)amino)-2-oxopyrrolidin-1-yl)acetic acid]
< 10	10 to 100	Cc1c(C#N)cccc1-c1cc2nc(C(O)c3c(F)cccc3F)nn2c(N)n1 (centres unmarked) [Example 13, 3-(5-Amino-2-((2,6-difluorophenyl)(hydroxy)methyl)-[1,2,4]triazolo[1,5-c]pyrimidin-7-yl)-2-methylbenzonitrile]
< 10	10 to 100	CCN(Cc1cccc(F)c1Cc1nc2cc(-c3cccc(C#N)c3F)nc(N)n2n1)[C@@H]1CCNC1=O [Example 32, (R)-3-(5-Amino-2-(2-((ethyl(2-oxopyrrolidin-3-yl)amino)methyl)-6-fluorobenzyl)-[1,2,4]triazolo[1,5-c]pyrimidin-7-yl)-2-fluorobenzonitrile]
< 10	10 to 100	CN1CCC(NCc2cccc(F)c2Cc2nc3cc(-c4cccc(C#N)c4F)nc(N)n3n2)C1=O (centres unmarked) [Example 29, 3-(5-Amino-2-(2-fluoro-6-(((1-methyl-2-oxopyrrolidin-3-yl)amino)methyl)benzyl)-[1,2,4]triazolo[1,5-c]pyrimidin-7-yl)-2-fluorobenzonitrile]
< 10	10 to 100	CN1CCC2(CN(Cc3cccc(F)c3C(O)c3nc4cc(-c5cccc(C#N)c5F)nc(N)n4n3)C2)C1=O (centres unmarked) [Example 17, 3-(5-Amino-2-((2-fluoro-6-((6-methyl-5-oxo-2,6-diazaspiro[3.4]octan-2-yl)methyl)phenyl)(hydroxy)methyl)-[1,2,4]triazolo[1,5-c]pyrimidin-7-yl)-2-fluorobenzonitrile]

Source: patent US11168089B2, “Fused pyrimidine derivatives as A2A / A2B inhibitors” (Incyte Corporation, priority 2018, dated 2021)
